The text below walks through data of patent US20210380586A1, “2-INDOLYL IMIDAZO[4,5-D]PHENANTHROLINE POLYMORPHS AND COMPOSITIONS REGARDING THE SAME” (Aptose Biosciences Inc., priority 2020, published 2021).

In data set [1] the test system is KLF4, c-Myc, CDX2, p21, and GAPDH genes. Put plainly: In vitro changes in gene expression. The conditions noted are these: AML cell lines. The class given is cell-based. From the text:
(§1) Compound I free base and Compound I HCl salt were both tested for their in vitro antiproliferative potency against acute myeloid leukemia (AML) cell lines, for their concentration-dependent abilities to induce in vitro changes in gene expression (KLF4, c-Myc, CDX2, p21, and GAPDH genes) and to induce cell cycle arrest and apoptosis in AML cell lines.

Data set [2] concerns xenograft models of solid tumors and hematologic cancers. Nature of the data set: Nonclinical pharmacology xenograft studies. The class given is in vivo. From the text:
(§2) Compound I is a small molecule that inhibits expression of the c-Myc oncogene, leading to cell cycle arrest and programmed cell death (apoptosis) in human-derived solid tumor and hematologic cancer cells.

The subject of a further data set is AML cell lines. Nature of the data set: Induction of cell cycle arrest and apoptosis. The class given is cell-based.
Description: as §1

Data set [3] deals with acute myeloid leukemia (AML) cell lines. Nature of the data set: In vitro antiproliferative assay. In kind it is cell-based.
Description: as §1

Another data set deals with c-Myc oncogene. Nature of the data set: Inhibition of c-Myc expression in cancer cells. The class given is cell-based. The conditions noted are these: human-derived solid tumor and hematologic cancer cells.
Description: as §2

Data set [4] in a line: Formulation development: solubility and clinical infusion simulation through 5 μm in-line filter. The class given is physicochemical. The procedure: Various pharmaceutical compositions were prepared in order to develop a formulation suitable for IV administration. […] A desirable IV pharmaceutical composition will be a solution. Further, a desirable IV pharmaceutical composition, when diluted with IV fluids will remain in solution. In addition, a desirable IV pharmaceutical composition, when diluted with IV fluids will remain in solution and pass an in-line filter of about 5 μm.
Clinical infusion simulation study: formulated Compound I (equivalent to 4 mg/mL Compound I free base tetrahydrate) was mixed in-line with Lactated Ringers IV Solution through a controlled delivery system employing infusion pumps. The blended liquid was passed through a 5 μm in-line filter and the eluate was then passed to the end of the infusion line. Sample analysis was performed by collecting materials at 0, 15, 30, 60, 75, 90, 105, 115 and 120 minutes and analyzing immediately be visual assessment under a microscope.

For `Cc1[nH]c2ccc(F)cc2c1-c1nc2c3cccnc3c3ncccc3c2[nH]1` [Compound I, 2-(5-fluoro-2-methyl-1H-indol-3-yl)-1H-imidazo[4,5-f][1,10]phenanthroline], the “concentration-dependent in vitro changes in gene expression, free base versus HCl salt” value in data set [1] is recorded as “behaved equivalently”. Also, the “in vivo anti-tumor activity” value in data set [2] is reported as “demonstrated in vivo anti-tumor activity”. Also, the “induction of cell cycle arrest and apoptosis, free base versus HCl salt” value in the data set on AML cell lines is “behaved equivalently”. For the same compound, the “in vitro antiproliferative potency, free base versus HCl salt” value in data set [3] was “behaved equivalently”. Moreover, the “expression of the c-Myc oncogene” value in the data set with c-Myc oncogene is listed as “inhibits”. Besides, the “solubility compared with Compound I-HCl under the same conditions” value in data set [4] (Solutol HS 15, PG, PEG-400, water) is reported as “more soluble”. In addition, the “apparent solubility while adding water to the formulation” value was “more soluble” in data set [4] (in the beginning, approximately 3-10 mL water added) and “insoluble” in data set [4] (upon complete addition of water (up to 60 mL), cloudy formulation). Besides, in data set [4] (pharmaceutical composition prepared with Fischer Scientific's PG), the “behaviour upon addition of IV fluid” value is “crashed out of solution”. For the same compound, the “effect of PEG-400 on solubility” value in data set [4] (tested conditions (entries 2 and 3)) is “did not improve solubility”.
